Experimental data taken from patent US20040001822A1, “Y1-isolated molecules comprising epitopes containing sulfated moieties, antibodies to such epitopes, and uses thereof” (priority 2000, published 2004).
Starred links: 1 amine or outer side, 2 acyl side, 3 side chain; linkers in the order of their positions; H or OH if unused. Primed or numbered codes have the meaning given here. No end group written: not given here. *: point of attachment. SO3H = sulfated tyrosine (Y*), O=S(=O)(O)[*:2]; SO3H″ = O=S(=O)(O)*

Tests used:
[1] = test system: KG-1 cells; assay: AML KG-1 model in NOD/SCID mice; format: in vivo; conditions: for percentage of KG-1 cells in bone marrow compared to untreated group 2: Doxorubicin 0.1 mg/kg 3 times per week, CONY1-Doxorubicin 75 μg/mouse 3 times per week, Mylotarg 0.2 mg/kg 1 time per week
Description: The in vivo mouse model for human AML uses SCID/NOD mice (Jackson Laboratories) inoculated with KG-1 cells derived from a human AML cell line.
In a first experiment, NOD/SCID mice were pretreated with 100 mg/kg CYTOXAN®. Four days post CYTOXAN® injection, KG-1 cells were injected intravenously into the tail vein of six groups of mice. (Table N, Groups 2 and 5-9). One group of mice (Table N, Group 1) was injected with PBS alone (control).
Beginning 19 days post KG-1 injection mice were treated with: CONY1, Doxorubicin, CONY1-Doxorubicin conjugate, or Mylotarg®. (Mylotarg® is a monoclonal antibody (anti CD33) conjugated chemically to calcheamicin recently approved by the FDA for treatment of AML patients age 60 and over in a first relapse.) Mice were treated once or three times per week for three weeks. One group (group 2) of KG-1 inoculated mice were left untreated. (Table N). Two other groups of mice (groups 3 and 4) were injected with KG-1 cells that were previously incubated with CONY1 or 181-scFv (a negative, non-specific control antibody) in serum free RPMI containing 1% BSA at 4° C. for 1 h. The antibodies were used at a concentration of 0.25 mg scFv/l 10^8 cells (75 μg/mouse). Before injection into the mice the preincubated KG-1 cells were washed and resuspended in RPMI. The KG-1 cells in RPMI were inoculated into mice at a concentration of 75 μg scFv/0.2 ml RPMI per mouse. Group 3 mice were inoculated with KG-1+CONY1, and group4 mice were inoculated with KG-1+181-scFv. (Table N). This treatment (group 3 and 4) was carried out one day after the inoculation of groups 1-2 and 5-9, i.e., at five days after CYTOXAN injection.
Mice were sacrificed from 60 to 65 days post cell injection. Bone marrow samples were analyzed by flow cytometry using mouse anti human CD34-FITC (IQP 144F) (or anti CD44-FITC (MCA89F, Serotec)) and Y1-Biotin/SAV-PE. Mouse IgG1-FITC (IQP 191-F) was used as an isotype control, and mouse IgG2a-FITC (MCA929F, Serotec) was used as a negative control. Flow cytometry was performed using FACSCalibur system and CellQwest software, Becton Dickinson.
An additional experiment was performed in which SCID-NOD mice were i.v. injected with 3×10^4 MOLT-4 cells/mouse 5 days post treatment with cyclophosphamide. Anti-cancer agents or PBS were injected IV three times/week, from day 14 onward. On day 60, blood was drawn, then the animals were sacrificed. Bone marrow was extracted and analyzed by FACS analysis using a commercially available antiCD44 antibody for the detection of MOLT-4 cells in the mice bone marrow cell population.

[2] = test system: Y1 Binding to Glycocalicin; assay: ELISA: effect of synthetic GPIbα peptides on Y1 binding to purified glycocalicin; parameters: species or system human; conditions: 0.25 μg/well Y1
Sequence of Y1 Binding to Glycocalicin (as listed by the source): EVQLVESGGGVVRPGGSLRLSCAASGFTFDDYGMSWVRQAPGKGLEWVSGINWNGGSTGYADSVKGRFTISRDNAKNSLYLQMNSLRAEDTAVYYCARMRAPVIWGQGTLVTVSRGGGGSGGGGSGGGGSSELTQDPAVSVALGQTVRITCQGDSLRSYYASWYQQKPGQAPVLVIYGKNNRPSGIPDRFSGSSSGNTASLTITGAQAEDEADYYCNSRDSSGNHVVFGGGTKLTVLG
Description: ELISA assays were developed to evaluate the effect of the GPIb derived synthetic peptides on the binding of Y1 to purified glycocalicin. In addition, FACS analysis using washed platelets was carried out. To evaluate the importance of sulfated tyrosine within the Y1 binding site of GPIb, a competitive binding FACS analysis was used. Y1-scFv at a concentration of 1 μg was preincubated with different peptides at concentrations of 2.5 and 200 μM. After a preincubation for 30 minutes at room temperature the mixture was added to a tube containing ˜10^7 washed platelets and the binding of Y1 to the washed platelets was assessed using polyclonal rabbit anti-scFv-PE. The inhibitory effect of the peptides compared to control binding (Y1 alone) was evaluated by measuring the residual binding of Y1 to washed platelets. The peptides and the results are described in Table 1 and are similar to results that were observed using the same peptides in an ELISA assay (Table B). In both assays, a control level of Y1 binding was determined, as follows. A polystyrene microtiter maxisorb plate was coated with (a) purified glycocalicin or (b) washed platelets. […] The plate was then incubated with rabbit anti-scFv followed by addition of anti rabbit-HRP (horse radish peroxidase) and HRP substrate. The level of anti rabbit-HRP binding was measured by the intensity of the color produced, and the level of anti rabbit-HRP binding correlates with the level of binding of anti Y1-scFv and the level of binding of Y1. The optical density was measured at A405. Each sample was assayed in duplicate, and the average was calculated.
The effect of synthetic GPIbα peptides on Y1 binding to purified glycocalicin was evaluated by mixing varying concentrations of the peptides with a constant amount of Y1. After a preincubation for 30 minutes at room temperature, the mixture was added to a polystyrene microtiter maxisorb plate coated with purified glycocalicin, as described for evaluation of Y1 binding in the absence of peptides. The inhibitory effect of the peptides was evaluated by measuring the residual binding of Y1 to glycocalicin using rabbit anti Y1 scFv and anti rabbit-HRP antibodies, as described for evaluation of Y1 binding in the absence of peptides. This study was performed with four peptides representing various subsets of the sequence 268 to 285 and a control peptide. Each peptide was tested at different concentrations: 200 μM, 25 μM, 2.5 μM, and 0.5 μM.

[3] = test system: washed platelets; assay: Competitive FACS: effect of synthetic GPIbα peptides on Y1 binding to washed platelets; parameters: species or system human
Description: ELISA assays were developed to evaluate the effect of the GPIb derived synthetic peptides on the binding of Y1 to purified glycocalicin. In addition, FACS analysis using washed platelets was carried out. To evaluate the importance of sulfated tyrosine within the Y1 binding site of GPIb, a competitive binding FACS analysis was used. Y1-scFv at a concentration of 1 μg was preincubated with different peptides at concentrations of 2.5 and 200 μM. After a preincubation for 30 minutes at room temperature the mixture was added to a tube containing ˜10^7 washed platelets and the binding of Y1 to the washed platelets was assessed using polyclonal rabbit anti-scFv-PE. The inhibitory effect of the peptides compared to control binding (Y1 alone) was evaluated by measuring the residual binding of Y1 to washed platelets. The peptides and the results are described in Table 1 and are similar to results that were observed using the same peptides in an ELISA assay (Table B). In both assays, a control level of Y1 binding was determined, as follows. A polystyrene microtiter maxisorb plate was coated with (a) purified glycocalicin or (b) washed platelets. After extensive washing, 0.5 μg/well of Y1 was added. The plate was then incubated with rabbit anti-scFv followed by addition of anti rabbit-HRP (horse radish peroxidase) and HRP substrate. The level of anti rabbit-HRP binding was measured by the intensity of the color produced, and the level of anti rabbit-HRP binding correlates with the level of binding of anti Y1-scFv and the level of binding of Y1. The optical density was measured at A405. Each sample was assayed in duplicate, and the average was calculated.

[4] = test system: scFv Y1 binding to glycocalicin; assay: Competitive binding ELISA of sulfated peptides to Y1; parameters: species or system human; conditions: for Inhibition of Y1 binding to glycocalicin by peptide: peptide preincubated with scFv Y1 at 1, 10 and 100 μM
Sequence of scFv Y1 binding to glycocalicin (as listed by the source): as above
Description: A competitive binding ELISA assay was used to assess the importance of position of sulfated tyrosines to the binding of peptides to Y1.
Glycocalicin was immobilized on a Maxisorb plate. scFv Y1 was preincubated with a peptide of interest for 10 minutes at three different concentrations (1, 10 and 100 μM) in order to observe a dose response. (Table 12). After preincubation, the mixture (Y1+peptide) was added to the plate, and binding of scFv Y1 was assessed using polyclonal rabbit anti-VL, which recognizes the VL chain of scFv Y1, followed by anti-rabbit-HRP. In mixtures in which the peptide bound to scFv Y1, a decrease in the binding of scFv Y1 to glycocalicin compared to control binding was observed.

| Molecule | Residual Binding of Y1 (% of baseline) ([2]; peptide 0.5 μM) | Residual Binding of Y1 (% of baseline) ([2]; peptide 2.5 μM) | Residual Binding of Y1 (% of baseline) ([2]; peptide 25 μM) | Residual Binding of Y1 (% of baseline) (Geo Mean) ([3]; peptide 2.5 μM) | Residual Binding of Y1 (% of baseline) (Geo Mean) ([3]; peptide 200 μM) | Inhibition of Y1 binding to glycocalicin by peptide [4] | further results |
| --- | --- | --- | --- | --- | --- | --- | --- |
| COc1cccc2c1C(=O)c1c(O)c3c(c(O)c1C2=O)C[C@@](O)(C(=O)CO)C[C@@H]3O[C@H]1C[C@H](N)[C@H](O)[C@H](C)O1 [Doxorubicin] |  |  |  |  |  |  | reduction in the number of tumor cells in the bone marrow ([1]; additional experiment, day 60): 50%; mice that died within three weeks after treatment initiation ([1]; first experiment, group 7, 5 mg/kg, 1 time per week): Nine out of 10; percentage of KG-1 cells in bone marrow compared to untreated group 2 ([1]; first experiment): statistically significant (p<0.05) lower percentage |
| GDEGDTDLY*DY*Y*P (GDEGDTDLYDYYP; not fully specified (residues 9, 11, 12); printed as GDEGDTDLY*DY*Y*P) [P-3-S, residues 268-280 of GPIbα] | 80 % of baseline | 67 % of baseline | 21 % of baseline | 82 % of baseline | 26 % of baseline |  |  |
| GDEGDTDLY*DY*Y*PEEDTE (GDEGDTDLYDYYPEEDTE; not fully specified (residues 9, 11, 12); printed as GDEGDTDLY*DY*Y*PEEDTE) [P-1-S, residues 268-285 of GPIbα, Y* sulfated tyrosine] | 89 % of baseline | 62 % of baseline | 25 % of baseline | 41 % of baseline | 5 % of baseline | did inhibit the binding | Residual Binding of Y1 (% of baseline) ([2]; peptide 200 μM): 0 % of baseline |
| GDEGDTDLYDYYPEEDTE [P-1, residues 268-285 of GPIbα, non-sulfated] | 88 % of baseline | 94 % of baseline | 71 % of baseline |  | 87 % of baseline |  | Residual Binding of Y1 (% of baseline) ([2]; peptide 200 μM): 61 % of baseline |
| Mylotarg: monoclonal antibody (anti CD33) conjugated chemically to calcheamicin |  |  |  |  |  |  | prevalence of cancer cells in the bone marrow ([1]; additional experiment, day 60, CONY1 scFv 75 μg/mouse three times/week, Mylotarg 7 μg/mouse once a week): completely inhibited; percentage of KG-1 cells in bone marrow compared to untreated group 2 ([1]; first experiment): free of KG 1 cells |
| QATEY*EY*LDYDFLPETE (QATEY(SO3H)EY(SO3H)LDYDFLPETE) [P-Y* Y*Y, PSGL-1 n-terminus peptide, sulfated] |  |  |  |  |  | inhibited Y1 binding to glycocalicin |  |
| QATEY*EYLDY*DFLPETE (QATEY(SO3H)EYLDY(SO3H)DFLPETE) [P-Y*Y Y*, PSGL-1 n-terminus peptide, sulfated] |  |  |  |  |  | inhibited Y1 binding to glycocalicin |  |
| QATEY*EYLDYDFLPETE (QATEY(SO3H)EYLDYDFLPETE) [P-Y*YY, PSGL-1 n-terminus peptide, sulfated] |  |  |  |  |  | inhibited Y1 binding to glycocalicin | peptide concentration at which binding is inhibited efficiently ([4]; competitive ELISA, scFv Y1 on glycocalicin): 100 µM |
| QATEYEY*LDY*DFLPETE (QATEYEY(SO3H″)LDY(SO3H″)DFLPETE) [P-YY* Y*, PSGL-1 n-terminus peptide, sulfated] |  |  |  |  |  | best inhibitors |  |
| QATEYEY*LDYDFLPETE (QATEYEY(SO3H)LDYDFLPETE) [P-YY*Y, PSGL-1 n-terminus peptide, sulfated] |  |  |  |  |  | inhibited Y1 binding to glycocalicin |  |
| REEGRQHFFLLEGRSSYS [negative control peptide, reference compound] |  | 100 % of baseline | 89 % of baseline | 96 % of baseline |  |  | Residual Binding of Y1 (% of baseline) ([2]; peptide 200 μM): 85 % of baseline |
| TDLY*DY*Y*PEEDTE (TDLYDYYPEEDTE; not fully specified (residues 4, 6, 7); printed as TDLY*DY*Y*PEEDTE) [P-2-S, residues 273-285 of GPIbα] | 78 % of baseline | 52 % of baseline | 15 % of baseline | 61 % of baseline | 7 % of baseline |  |  |
